Target: T1, Prostaglandin G/H synthase 1 (Ovis aries, UniProt P05979)
T1 sequence (P05979 whole entry): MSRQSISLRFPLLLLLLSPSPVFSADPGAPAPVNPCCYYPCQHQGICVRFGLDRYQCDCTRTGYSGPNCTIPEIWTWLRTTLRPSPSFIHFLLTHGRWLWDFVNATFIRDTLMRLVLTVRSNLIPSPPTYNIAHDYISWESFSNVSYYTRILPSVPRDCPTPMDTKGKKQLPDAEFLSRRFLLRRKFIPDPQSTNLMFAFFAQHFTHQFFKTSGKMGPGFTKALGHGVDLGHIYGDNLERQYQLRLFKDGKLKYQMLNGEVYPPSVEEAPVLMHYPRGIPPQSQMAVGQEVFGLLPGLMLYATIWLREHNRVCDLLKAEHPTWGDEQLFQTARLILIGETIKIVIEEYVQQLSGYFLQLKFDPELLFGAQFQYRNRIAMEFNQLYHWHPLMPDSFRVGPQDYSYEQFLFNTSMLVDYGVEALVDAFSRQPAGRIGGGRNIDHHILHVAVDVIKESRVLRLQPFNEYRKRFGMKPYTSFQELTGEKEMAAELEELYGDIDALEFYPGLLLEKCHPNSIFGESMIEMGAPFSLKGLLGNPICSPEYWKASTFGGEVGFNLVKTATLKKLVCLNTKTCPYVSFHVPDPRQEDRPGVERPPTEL
Assay: In vitro inhibitory concentration against ovine Prostaglandin G/H synthase 1

SMILES	IC50 [µM]
CCCCCCC/C(=C\c1ccccc1)c1ccc(S(C)(=O)=O)cc1	> 100
CCCCCC/C(=C\c1ccccc1)c1ccc(S(C)(=O)=O)cc1	> 100
CC/C(=C\c1ccc(C)cc1)c1ccc(S(C)(=O)=O)cc1	0.03

More lines, now with the values ahead:

IC50 [µM]	SMILES
> 100	CC/C(=C\c1ccccc1)c1ccc(S(C)(=O)=O)cc1
> 100	CCC/C(=C\c1ccccc1)c1ccc(S(C)(=O)=O)cc1

Reference: ChEMBL document CHEMBL1137874, “A new class of acyclic 2-alkyl-1,2-diaryl (E)-olefins as selective cyclooxygenase-2 (COX-2) inhibitors” (Bioorg Med Chem Lett, 2004)
